Test results reported in patent publication US11071731B2, “Allosteric modulators of the mu opioid receptor” (Chiromics, LLC, priority 2017, dated 2021).

Tests used:
mu opioid receptor (MOR) [1] = target: T1, mu opioid receptor (MOR) (Homo sapiens, UniProt P35372); experiment: PathHunter β-arrestin recruitment assay, PAM mode with EC20 endomorphin-1; type: cell-based; settings: for EC50: read-out: β-arr. EC50
How it was run: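 Enzyme fragment complementation read-out: β-gal ED fragment fused to receptor, EA fused to β-arrestin, recruitment restoring β-gal activity detected by chemiluminescence. EC50 and percent maximal response derived for each compound.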

mu opioid receptor (MOR) [2] = target: T1, mu opioid receptor (MOR); experiment: Hit Hunter cAMP signaling assay (adenylyl cyclase inhibition), PAM mode with EC20 endomorphin-1; type: cell-based
[3] = maximal response for β-arrestin recruitment
[4] = maximal response for adenylyl cyclase inhibition
[5] = cAMP EC50, adenylyl cyclase inhibition
[6] = adenylyl cyclase inhibition, read-out: cAMP EC50

T1 sequence (P35372 whole entry, the tested form may be a part): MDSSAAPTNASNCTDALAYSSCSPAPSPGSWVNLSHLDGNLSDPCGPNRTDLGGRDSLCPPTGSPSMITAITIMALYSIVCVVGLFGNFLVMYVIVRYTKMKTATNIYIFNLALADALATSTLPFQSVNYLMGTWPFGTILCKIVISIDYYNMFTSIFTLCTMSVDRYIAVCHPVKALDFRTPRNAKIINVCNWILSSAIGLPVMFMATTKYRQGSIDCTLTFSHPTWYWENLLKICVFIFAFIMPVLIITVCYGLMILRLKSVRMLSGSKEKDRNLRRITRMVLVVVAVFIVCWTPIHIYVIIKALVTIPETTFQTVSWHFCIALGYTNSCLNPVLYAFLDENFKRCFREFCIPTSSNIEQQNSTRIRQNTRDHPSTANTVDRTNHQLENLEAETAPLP

Row | SMILES | β-arr Max. Resp. (mu opioid receptor (MOR) [1]; [3]) | EC50 (mu opioid receptor (MOR) [1]; β-arrestin recruitment) | cAMP Max. Resp. (mu opioid receptor (MOR) [2]; [4]) | EC50 (mu opioid receptor (MOR) [2]; read-out: cAMP EC50, adenylyl cyclase inhibition) | EC50 (mu opioid receptor (MOR) [2]; [5]) | EC50 (mu opioid receptor (MOR) [2]; [6]) | β-arr Max. Resp. (mu opioid receptor (MOR) [1]; maximal response, β-arrestin recruitment) | cAMP Max. Resp. (mu opioid receptor (MOR) [2]; maximal response, adenylyl cyclase inhibition)
1 | COc1ccc(C2C(F)CCCN2c2nc(Cl)ncc2F)cc1Br (centres unmarked) [compound 213] | F (F represents a maximal response of > 60%) | > 2.1 µM | D (D represents a maximal response of < 40%) | > 2.1 µM | – | – | – | –
2 | Fc1cnc(Cl)nc1N1CCCCC1c1cccc2ccncc12 (centres unmarked) [compound 286] | D (D represents a maximal response of < 40%) | > 2.1 µM | D (D represents a maximal response of < 40%) | – | > 2.1 µM | – | – | –
3 | Fc1cnc(Cl)nc1N1CCCCC1c1ccc(OC(F)(F)F)c(Br)c1 (centres unmarked) [compound 126] | F (F represents a maximal response of > 60%) | < 0.7 µM | E (E represents a maximal response of 40-60%) | – | < 0.7 µM | – | – | –
4 | Fc1ccc(C2CCCCN2c2nc(Cl)ncc2F)cc1Cl (single isomer, unassigned) [compound 346] | D (D represents a maximal response of < 40%) | < 0.7 µM | D (D represents a maximal response of < 40%) | – | – | < 0.7 µM | – | –
5 | Fc1cnc(Cl)nc1N1CC(C(F)(F)F)CC1c1cccc(C(F)(F)F)c1 (centres unmarked) [compound 473] | – | > 2.1 µM | – | – | – | > 2.1 µM | E (E represents a maximal response of 40-60%) | D (D represents a maximal response of < 40%)
6 | COc1ccc(C2CCCCN2c2cncc(C(F)(F)F)n2)cc1Br (centres unmarked) [compound 230] | F (F represents a maximal response of > 60%) | > 2.1 µM | F (F represents a maximal response of > 60%) | – | > 2.1 µM | – | – | –
7 | Fc1cnc(Cl)nc1N1CCCCC1c1cccc(Cl)c1F (centres unmarked) [compound 369] | D (D represents a maximal response of < 40%) | < 0.7 µM | D (D represents a maximal response of < 40%) | – | < 0.7 µM | – | – | –
8 | O=S(=O)(c1ccc(Cl)cc1)N1CCCCC1c1cccc(C(F)(F)F)n1 (centres unmarked) [compound 3] | F (F represents a maximal response of > 60%) | < 0.7 µM | F (F represents a maximal response of > 60%) | – | < 0.7 µM | – | – | –
9 | CN(C)c1cccc(C2CCCCN2Cc2cc(Cl)ccc2F)n1 (centres unmarked) [compound 149] | F (F represents a maximal response of > 60%) | > 2.1 µM | E (E represents a maximal response of 40-60%) | – | > 2.1 µM | – | – | –
10 | Fc1ccc(C2CCCCN2Cc2cncc(Cl)c2)cc1Cl (centres unmarked) [compound 147] | F (F represents a maximal response of > 60%) | > 2.1 µM | D (D represents a maximal response of < 40%) | – | > 2.1 µM | – | – | –
11 | COc1cnc(C2CCCCN2c2nc(Cl)ncc2F)nc1Cl (centres unmarked) [compound 379] | D (D represents a maximal response of < 40%) | < 0.7 µM | D (D represents a maximal response of < 40%) | – | < 0.7 µM | – | – | –
12 | Fc1cnc(Cl)nc1N1CCCCC1c1cccc(Cl)c1 (centres unmarked) [compound 285] | F (F represents a maximal response of > 60%) | 0.7 to 2.1 µM | E (E represents a maximal response of 40-60%) | – | > 2.1 µM | – | – | –
13 | O=S(=O)(c1ccc(Cl)cc1)N1CCCCC1c1ccc(Cl)cc1 (racemic) [compound 76] | F (F represents a maximal response of > 60%) | > 2.1 µM | D (D represents a maximal response of < 40%) | – | – | > 2.1 µM | – | –
14 | Fc1cnc(Cl)nc1N1CCCCC1c1cc(C(F)(F)F)c2[nH]ncc2c1 (centres unmarked) [compound 352] | D (D represents a maximal response of < 40%) | < 0.7 µM | D (D represents a maximal response of < 40%) | – | < 0.7 µM | – | – | –
15 | Cc1ncccc1C1CCCCN1c1nc(Cl)ncc1F (centres unmarked) [compound 407] | D (D represents a maximal response of < 40%) | < 0.7 µM | D (D represents a maximal response of < 40%) | – | < 0.7 µM | – | – | –
16 | Fc1cccc(C2CCCCN2c2nc(Cl)ccc2F)n1 (centres unmarked) [compound 264] | E (E represents a maximal response of 40-60%) | > 2.1 µM | F (F represents a maximal response of > 60%) | – | 0.7 to 2.1 µM | – | – | –
17 | Fc1ccc(C2CCCCN2Cc2cc(Cl)ccc2F)cc1 (centres unmarked) [compound 163] | F (F represents a maximal response of > 60%) | 0.7 to 2.1 µM | E (E represents a maximal response of 40-60%) | – | < 0.7 µM | – | – | –
